Measurements from patent publication US12187709B2 (Genentech, Inc., priority 2021, dated 2025).
pIC50, pKd: −log10 of the molar value.

Tests used:
c-Cbl (residues 47-435) = c-Cbl (residues 47-435) (Homo sapiens (Human), UniProt P22681); test: c-Cbl SPR assay; assay type: binding; details: 20° C.
Method in brief: (§1)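 First, protein is captured to 1300-1500 RU. Then compound runs in single cycle kinetics, a blank plus 5 two-fold concentrations up to 500 nM (120 s contact, 50 μl/min, 450 s dissociation). Chaser injections (20 s, 30 μl/min) track occupancy, giving kd, which is fixed when fitting the titration.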

Cbl-b = Cbl-b (Homo sapiens (Human), UniProt Q13191); test: Cbl-b LCK Ub TR-FRET assay (Cbl-b Lck HTRF); assay type: biochemical; details: for pIC50: Cbl-b LCK Ub TR-FRET; for fold-selectivity (Cbl-b over C-cbl) / (fold-selectivity) Cbl-b and C-Cbl Selectivity: ratio C-cbl Lck HTRF IC50 / Cbl-b Lck HTRF IC50
Sequence of Cbl-b (Q13191 40-426): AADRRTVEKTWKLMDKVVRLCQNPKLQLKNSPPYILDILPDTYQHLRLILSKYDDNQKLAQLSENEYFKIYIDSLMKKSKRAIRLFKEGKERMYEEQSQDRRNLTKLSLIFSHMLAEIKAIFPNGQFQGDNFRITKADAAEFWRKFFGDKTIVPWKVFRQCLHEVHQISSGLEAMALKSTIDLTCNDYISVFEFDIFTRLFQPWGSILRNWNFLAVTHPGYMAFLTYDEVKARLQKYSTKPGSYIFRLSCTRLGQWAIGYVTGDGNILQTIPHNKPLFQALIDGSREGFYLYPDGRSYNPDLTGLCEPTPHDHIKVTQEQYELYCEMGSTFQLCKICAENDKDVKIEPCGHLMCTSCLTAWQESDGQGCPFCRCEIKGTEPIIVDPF
Method in brief: (§2)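 After the ubiquitination reaction, detection mixture was added and plates incubated 20 min at room temperature before reading. IC50 values were calculated with wells lacking LCK as the low control and DMSO as the high control.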

[1] = target: Human Cbl-b (residues 40-426) (Homo sapiens (Human), UniProt Q13191); test: Cbl-b SPR assay; assay type: binding; details: for Fold of selectivity: C-cbl SPR Kd vs Cbl-b SPR Kd; for pKd: SPR, 20° C.
Sequence of Human Cbl-b (residues 40-426) (Q13191 40-426): as above
Method in brief: as §1

c-Cbl = c-Cbl (Homo sapiens (Human), UniProt P22681); test: C-Cbl LCK Ub TR-FRET assay (C-cbl Lck HTRF); assay type: biochemical
Sequence of c-Cbl (P22681 47-435): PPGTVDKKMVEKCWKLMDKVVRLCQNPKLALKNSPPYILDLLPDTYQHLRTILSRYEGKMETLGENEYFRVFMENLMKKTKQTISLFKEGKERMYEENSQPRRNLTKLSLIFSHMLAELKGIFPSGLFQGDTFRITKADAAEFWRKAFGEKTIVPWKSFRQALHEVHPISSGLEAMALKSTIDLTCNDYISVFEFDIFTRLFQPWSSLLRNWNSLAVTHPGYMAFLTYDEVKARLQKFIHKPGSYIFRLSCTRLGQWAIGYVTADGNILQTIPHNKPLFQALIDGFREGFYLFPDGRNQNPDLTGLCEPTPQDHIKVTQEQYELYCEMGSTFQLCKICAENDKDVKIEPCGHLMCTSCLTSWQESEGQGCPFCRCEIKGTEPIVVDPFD
Method in brief: as §2

Sequence of c-Cbl (residues 47-435) (P22681 47-435): as above

Row | SMILES | pKd (c-Cbl (residues 47-435)) | pIC50 (Cbl-b) | fold-selectivity (Cbl-b over C-cbl) (Cbl-b) | Fold of selectivity [1] [×] | pKd [1] | pIC50 (c-Cbl) | pIC50 (Cbl-b; Example 121) | (fold-selectivity) Cbl-b and C-Cbl Selectivity (Cbl-b) [x]
1 | Cn1cnnc1[C@]1(c2cccc(N3Cc4c(cc(CNC5(C)CCC5)cc4C(F)(F)F)C3=O)c2)C[C@H](OCF)C1 [Compound 370, 2-(3-((1s,3s)-3-(fluoromethoxy)-1-(4-methyl-4H-1,2,4-triazol-3-yl)cyclobutyl)phenyl)-6-(((1-methylcyclobutyl)amino)methyl)-4-(trifluoromethyl)isoindolin-1-one] | 7.41 | 7.89 | 3.2x | 9 | 8.38 | 7.38 |  | 
2 | Cn1cnnc1C1(c2cccc(N3Cc4c(cc(CNC5(C)CCC5)cc4C(F)(F)F)C3=O)c2)CN(CC(F)(F)F)C1 [Compound 110, 2-(3-(3-(4-methyl-4H-1,2,4-triazol-3-yl)-1-(2,2,2-trifluoroethyl)azetidin-3-yl)phenyl)-6-(((1-methylcyclobutyl)amino)methyl)-4-(trifluoromethyl)isoindolin-1-one] | 5.12 | 5.85 | 6.5x | 7.2 | 5.96 | 5.03 |  | 
3 | Cn1cnnc1C1(c2cccc(N3Cc4c(cc(CNC5(C)CCC5)cc4C(F)F)C3=O)c2)CC2(COC2)C1 [Compound 197, 4-(difluoromethyl)-2-(3-(6-(4-methyl-4H-1,2,4-triazol-3-yl)-2-oxaspiro[3.3]heptan-6-yl)phenyl)-6-(((1-methylcyclobutyl)amino)methyl)isoindolin-1-one] | 6.96 | 7.43 | 4.5x | 9.2 | 7.92 | 6.80 |  | 
4 | CO[C@H]1C[C@](c2cccc(N3Cc4c(cc(CN5CCC5)cc4C(F)(F)F)C3=O)c2)(c2nncn2C)C1 [Compound 480, 6-(azetidin-1-ylmethyl)-2-(3-((1r,3r)-3-methoxy-1-(4-methyl-4H-1,2,4-triazol-3-yl)cyclobutyl)phenyl)-4-(trifluoromethyl)isoindolin-1-one] | 6.31 |  |  | 11 | 7.35 | 6.55 | 7.47 | 7.9
5 | C=C[C@@H](C)Nc1cc(N2Cc3c(cc(CNC4(C)CCC4)cc3C(F)(F)F)C2=O)cc([C@]2(c3nncn3C)C[C@H](OC)C2)c1 (single isomer, unassigned) [Compound 219] | 7.54 | 7.89 | 2.7x | 6.5 | 8.35 | 7.44 |  | 
6 | CC[C@H]1C[C@@](c2cccc(N3Cc4c(cc(CNC5(C)CCC5)cc4C(F)(F)F)C3=O)c2)(c2nncn2C)C1 [Compound 454, 2-(3-((1r,3s)-3-ethyl-1-(4-methyl-4H-1,2,4-triazol-3-yl)cyclobutyl)phenyl)-6-(((1-methylcyclobutyl)amino)methyl)-4-(trifluoromethyl)isoindolin-1-one] | 8.04 |  |  | 11 | 9.07 | 7.80 | 8.19 | 2.4
7 | CC[C@H]1C[C@@](c2cccc(N3Cc4c(Cl)cc(CNC5(C)CCC5)cc4C3=O)c2)(c2nncn2C)C1 [Compound 374, 4-chloro-2-(3-((1r,3s)-3-ethyl-1-(4-methyl-4H-1,2,4-triazol-3-yl)cyclobutyl)phenyl)-6-(((1-methylcyclobutyl)amino)methyl)isoindolin-1-one] | 8.00 | 8.18 | 2.0x | 11 | 9.02 | 7.85 |  | 
8 | C[C@H](NC1(C)CCC1)c1cc2c(c(C(F)(F)F)c1)CN(c1cccc([C@H](c3nncn3C)C3COC3)c1)C2=O [Compound 445, 2-(3-((R)-(4-methyl-4H-1,2,4-triazol-3-yl)(oxetan-3-yl)methyl)phenyl)-6-((S)-1-((1-methylcyclobutyl)amino)ethyl)-4-(trifluoromethyl)isoindolin-1-one] | 7.64 |  |  | 4.7 | 8.32 | 7.52 | 8.01 | 3.1
9 | CO[C@H]1C[C@](c2cccc(N3Cc4c(cc(CNCC5(F)CC5)cc4C(F)(F)F)C3=O)c2)(c2nncn2C)C1 [Compound 486, 6-((((1-fluorocyclopropyl)-methyl)amino)methyl)-2-(3-((1r,3r)-3-methoxy-1-(4-methyl-4H-1,2,4-triazol-3-yl)cyclobutyl)phenyl)-4-(trifluoromethyl)isoindolin-1-one] | 7.01 |  |  | 11 | 8.09 | 6.96 | 7.74 | 6.0
10 | CC[C@@H](NC1(C)CCC1)c1cc2c(c(C(F)(F)F)c1)CN(c1cccc([C@@H](c3nncn3C)C3COC3)c1)C2=O (single isomer, unassigned) [Compound 316] | 5.89 | 6.57 | 11x | 7.5 | 6.77 | 5.51 |  | 
11 | COC1CC([C@H](c2cccc(N3Cc4c(cc(CNC5(C)CCC5)cc4C(F)(F)F)C3=O)c2)c2nncn2C)C1 (single isomer, unassigned) [Compound 131] | 5.35 | 6.13 | 7.4x | 16 | 6.55 | 5.25 |  | 

Continued, values first:

Row | pKd (c-Cbl (residues 47-435)) | pIC50 (Cbl-b) | fold-selectivity (Cbl-b over C-cbl) (Cbl-b) | Fold of selectivity [1] [×] | pKd [1] | pIC50 (c-Cbl) | pIC50 (Cbl-b; Example 121) | (fold-selectivity) Cbl-b and C-Cbl Selectivity (Cbl-b) [x] | SMILES
12 | 8.40 | 7.39 | 2.4x | 6.6 | 9.22 | 7.01 |  |  | Cn1cnnc1[C@]1(c2cccc(N3Cc4c(cc(CNC5(C)CCC5)cc4C(F)(F)F)C3=O)c2)C[C@@H](CC#N)C1 [Compound 89, 2-((1r,3r)-3-(4-methyl-4H-1,2,4-triazol-3-yl)-3-(3-(6-(((1-methylcyclobutyl)amino)methyl)-1-oxo-4-(trifluoromethyl)isoindolin-2-yl)phenyl)-cyclobutyl)acetonitrile]
13 | 6.49 | 7.00 | 3.8x | 4.8 | 7.17 | 6.42 |  |  | Cn1cnnc1C1(c2cccc(N3Cc4c(cc(CNC5(C)CCC5)cc4C(F)(F)F)C3=O)c2)CS(=O)(=O)C1 [Compound 328, 2-(3-(3-(4-methyl-4H-1,2,4-triazol-3-yl)-1,1-dioxidothietan-3-yl)phenyl)-6-(((1-methylcyclobutyl)amino)methyl)-4-(trifluoromethyl)isoindolin-1-one]
14 | 6.70 | 7.40 | 4.6x | 5.4 | 7.46 | 6.72 |  |  | CC(=O)[C@H]1C[C@@](c2cccc(N3Cc4c(cc(CNC5(C)CCC5)cc4C(F)(F)F)C3=O)c2)(c2nncn2C)C1 [Compound 346, 2-(3-((1s,3s)-3-acetyl-1-(4-methyl-4H-1,2,4-triazol-3-yl)cyclobutyl)phenyl)-6-(((1-methylcyclobutyl)amino)methyl)-4-(trifluoromethyl)isoindolin-1-one]
15 | 7.43 | 7.74 | 2.4x | 8.5 | 8.34 | 7.37 |  |  | C[C@H](NC1(C)CCC1)c1cc(Cl)c2c(c1)C(=O)N(c1cccc([C@]3(c4nncn4C)C[C@@H](F)C3)c1)C2 (single isomer, unassigned) [Compound 289]
16 | 6.55 | 6.85 | 1.6x | 2.0 | 6.85 | 6.64 |  |  | Cn1cnnc1[C@@](C)(O)c1cccc(N2Cc3c(cc(CNC4(C)CCC4)cc3C(F)(F)F)C2=O)c1 [Compound 306, (S)-2-(3-(1-hydroxy-1-(4-methyl-4H-1,2,4-triazol-3-yl)ethyl)phenyl)-6-(((1-methylcyclobutyl)amino)methyl)-4-(trifluoromethyl)isoindolin-1-one]
17 | 7.89 |  |  | 16 | 9.10 | 7.82 | 8.39 | 3.6 | CO[C@H]1C[C@](c2cccc(N3Cc4c(cc(CNC5CC6CC6C5)cc4C(F)(F)F)C3=O)c2)(c2nncn2C)C1 (stereo partly drawn) [Compound 498, 6-((bicyclo[3.1.0]hexan-3-ylamino)methyl)-2-(3-((1r,3r)-3-methoxy-1-(4-methyl-4H-1,2,4-triazol-3-yl)cyclobutyl)phenyl)-4-(trifluoromethyl)isoindolin-1-one]
18 | 6.70 | 7.06 | (2.0x) | 5.0 | 7.40 | 6.75 |  |  | Cn1cnnc1C1(c2cccc(N3Cc4c(cc(CNC5(C)CCC5)cc4C(F)(F)F)C3=O)c2)CC(=O)C1 [Compound 19, 2-(3-(1-(4-methyl-4H-1,2,4-triazol-3-yl)-3-oxocyclobutyl)phenyl)-6-(((1-methylcyclobutyl)-amino)methyl)-4-(trifluoromethyl)isoindolin-1-one]
19 | 8.14 | 8.32 | 1.2x | 6 | 9.07 | 8.23 |  |  | Cn1cnnc1C(c1cccc(N2Cc3c(cc(CNC4(C)CCC4)cc3C(F)(F)F)C2=O)c1)[C@H]1C[C@@H](CC#N)C1 (single isomer, unassigned) [Compound 365]
